Experimental data reported in patent publication US20110300628A1, “ENHANCEMENT OF EPIDERMAL CELL GROWTH BY NON-PROTEIN GROWTH FACTORS” (priority 2010, published 2011).

Key:
[1] = system: normal human keratinocytes (NHK cells); test: Clonal growth assay of normal human keratinocytes in serum-free chemically defined medium; assay type: cell-based; details: for effect on clonal growth in high (3×) levels of the six key amino acids: 3× amino acids; for clonal growth of NHK relative to control medium supplemented with IGF-1 and EGF: additive in combination with IGF-1 (5 ng/mL), no EGF, 10 days after plating, diBcAMP 0.1 mM, LiCl 10 mM, PGE1 10 μg/ml; for replacement of protein growth factor requirement for clonal growth of NHK: serum-free medium, 10 days clonal growth; for clonal growth of NHK relative to culture medium supplemented with EGF plus IGF-1: 10 days
Method: The methods for isolating and culturing primary and secondary-passaged normal human neonatal normal human keratinocyte (NHK cells) were those previously employed (Wille et al., 1984). For the purpose of the present invention, secondary serially-passaged cultures were plated at 500 cells/cm in a novel serum-free basal media previously disclosed (Wille J. J., U.S. Pat. No. 5,586,307). This basal nutrient defined culture medium was supplemented either singly with the following additives: diBCAMP (1×10−4 M), LiCl (10 mM), and PGE1 ([…]). All dishes were fixed ten days later, stained with crystal violet stain (0.2%) and photographed.

keratinocyte cells = details: low calcium (0.03 mM) or calcium-free, serum-free medium; cited from earlier work

SMILES: [Cl-].[Li+] [Li+ ions, Lithium chloride]
- multiplication of human keratinocyte cells ([1]; 10 mM, serum-free chemically defined medium): stimulate
- effect on clonal growth in low (1×) levels of the six key amino acids ([1]; 1× amino acids, with protein growth factors): growth-enhancing effects
- effect on clonal growth in high (3×) levels of the six key amino acids ([1]; with protein growth factors, listed as lithium ions): lost
- effect on clonal growth in high (3×) levels of the six key amino acids ([1]; with protein growth factors, listed as lithium ions (Li+)): no enhancement
- clonal growth of NHK relative to control medium supplemented with IGF-1 and EGF [1]: significantly enhances
- replacement of protein growth factor requirement for clonal growth of NHK [1]: can replace EGF
- replacement of protein growth factor requirement for clonal growth of NHK ([1]; listed as Lithium ions): completely replaced EGF

SMILES: CCCCC[C@H](O)/C=C/[C@H]1[C@H](O)CC(=O)[C@@H]1CCCCCCC(=O)O [PGE1, Prostaglandin E1]
- clonal growth of NHK relative to control medium supplemented with IGF-1 and EGF [1]: significantly enhanced
- clonal growth of NHK relative to culture medium supplemented with EGF plus IGF-1 ([1]; in combination with both EGF and IGF-1): significantly enhanced
- clonal growth in elevated (3×) levels of the six key amino acids relative to lower (1×) levels ([1]; in the presence of insulin (5 μg/mL) and EGF (10 ng/mL)): significant enhancement
- replacement of protein growth factor requirement for clonal growth of NHK [1]: can replace both EGF and IGF-1
- clonal growth of NHK relative to culture medium supplemented with EGF plus IGF-1 ([1]; single addition to medium unsupplemented by any protein growth factors): significantly enhanced

SMILES: [Sr+2] [Strontium ions (Sr 2+)]
- concentration of maximal enhancement of cell viability and increase in cell number (keratinocyte cells): 1.0 to 2.0 mM

SMILES: CCCC(=O)Nc1ncnc2c1ncn2[C@@H]1O[C@@H]2COP(=O)(O)O[C@H]2[C@H]1OC(=O)CCC [diBcAMP, dibutryl-3′-5′-adenosine monophosphate]
- clonal growth of NHK relative to control medium supplemented with IGF-1 and EGF [1]: significantly enhanced
- clonal growth of NHK relative to control medium supplemented with IGF-1 and EGF ([1]; listed as diBCAMP): does enhance
- replacement of protein growth factor requirement for clonal growth of NHK [1]: can replace EGF
